Reference: US11013696B2, “Lipids and lipid compositions for the delivery of active agents” (Novartis AG, priority 2013, dated 2021)

What was measured:
[1] = Entrapment and RNA concentration of RSV-F replicon liposomes (Quant-iT RiboGreen); type: physicochemical
Experimental: RNA was encapsulated in liposomes made essentially by the method of Geall et al. (2012) PNAS vol. 109 (36): 14604-14609, Jeffs et al. (2005) Pharmaceutical Research 22 (3):362-372 and Maurer et al. (2001) Biophysical Journal, 80: 2310-2326 The liposomes were made of 10% DSPC (zwitterionic), 40% cationic lipid, 48% cholesterol and 2% PEG-conjugated DMG (2 kDa PEG). These proportions refer to the % moles in the total liposome.
Briefly, lipids were dissolved in ethanol (2 ml), a RNA replicon was dissolved in buffer (2 ml, 100 mM sodium citrate, pH 6) and these were mixed with 2 ml of buffer followed by 1 hour of equilibration. The mixture was then dialized overnight against 1×PBS. The resulting product contained liposomes, with ˜70-95% encapsulation efficiency. For in vitro and in vivo experiments formulations were diluted to the required RNA concentration with 1×PBS.
The percentage of encapsulated RNA and RNA concentration were determined by Quant-iT RiboGreen RNA reagent kit (Invitrogen), following manufacturer's instructions. The ribosomal RNA standard provided in the kit was used to generate a standard curve. Liposomes were diluted 10× or 100× in 1×TE buffer (from kit) before addition of the dye. Separately, liposomes were diluted 10× or 100× in 1×TE buffer containing 0.5% Triton X before addition of the dye (to disrupt the liposomes and thus to assay total RNA). Thereafter an equal amount of dye was added to each solution and then ˜180 μL of each solution after dye addition was loaded in duplicate into a 96 well tissue culture plate. The fluorescence (Ex 485 nm, Em 528 nm) was read on a microplate reader. All liposome formulations were dosed in vivo based on the encapsulated amount of RNA.
A self-replicating replicon encoding RSV F protein was administered to BALB/c mice, 8 animals per group, by bilateral intramuscular vaccinations (50 μL per leg) on days 0 and 21 with the replicon (0.1 and 1 ng) formulated as liposomes with the lipids described below. All liposomes tested were composed of 40% cationic lipid, 10% DSPC, 48% cholesterol and 2% PEG-DMG with similar amounts of RNA. The liposomes were all prepared using the same technique as described above.
% entrapment (% E), Concentration of RNA (Conc), particle size measured by DLS, and polydispersity reported by DLS of LNPs prepared with different cationic lipids

[2] = siRNA encapsulation in lipid nanoparticles (SYBR Gold); type: physicochemical; conditions: for % Encap.: FVII siRNA; for % encapsulation siRNA FVII: Table 2, FVII siRNA in LNP with the cationic lipid
Procedure, shortened: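 SYBR Gold fluorescence (ex 485/em 530 nm) of LNPs made by impinging-jet mixing of ethanolic lipids (cationic, cholesterol, optional DSPC, PEG/stealth lipid) with siRNA in citrate pH 4-6, siRNA:lipid ~0.05 wt/wt. Samples with and without Triton X-100 gave free and total siRNA for encapsulation efficiency.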

[3] = RSV-F replicon LNP prepared for 1st IM
[4] = RSV-F replicon LNP prepared for 2nd IM

SMILES | % E (% entrapment) [1, 3] [%] | % E (% entrapment) [1, 4] [%] | % Encap. [2] [%] | % encapsulation siRNA FVII [2] [%]
CCCCCCCCCCCCC(CCOC(=O)CCCCC(COC(=O)CCCCCCC)COC(=O)CCCCCCC)OC(=O)OCCCN(CC)CC (centres unmarked) [Example 1, 2-(10-dodecyl-3-ethyl-8,14-dioxo-7,9,13-trioxa-3-azaoctadecan-18-yl)propane-1,3-diyl dioctanoate] | 91.11 | 87.13 | – | –
CCCCCCCCCCCCC(CCOC(=O)CCCCC(OCCCCCCCC)OCCCCCCCC)OC(=O)OCCCN(CC)CC (centres unmarked) [Example 16, 3-(((3-(diethylamino)propoxy)carbonyl)oxy)pentadecyl 6,6-bis(octyloxy)hexanoate] | – | – | 88.9 | 88.9
CCCCC/C=C\C/C=C\CCCCCCCC(=O)OCC(COC(=O)CCCCCCC/C=C\C/C=C\CCCCC)OC(=O)CCC(CCCCCCCCCCCC)OC(=O)OCCCN(C)C (centres unmarked) [Example 80, (9Z,9′Z,12Z,12′Z)-2-((4-(((3-(dimethylamino)propoxy)carbonyl)oxy)hexadecanoyl)oxy)propane-1,3-diyl bis(octadeca-9,12-dienoate)] | – | – | 85.2 | 85.2
CCCCCCCCCCCCC(CCOC(=O)CCCCC(OCC(CC)CCCC)OCC(CC)CCCC)OC(=O)OCCCN(CC)CC (centres unmarked) [Example 18, 3-(((3-(diethylamino)propoxy)carbonyl)oxy)pentadecyl 6,6-bis((2-ethylhexyl)oxy)hexanoate] | 96.15 | 96.25 | – | 91.2
CCCCC/C=C\C/C=C\CCCCCCCCC(CCC(=O)OC(COC(=O)CCCCCCC)COC(=O)CCCCCCC)OC(=O)OCCCN(C)C (centres unmarked) [Example 94, 2-(((13Z,16Z)-4-(((3-(dimethylamino)propoxy)carbonyl)oxy)docosa-13,16-dienoyl)oxy)propane-1,3-diyl dioctanoate] | – | – | 74.8 | 74.8
CCCCCCCCCC(=O)OCCC(CC(CCCCCCCC)CCCCCCCC)OC(=O)OCCCN(C)C (centres unmarked) [Example 70, 3-(((3-(dimethylamino)propoxy)carbonyl)oxy)-5-octyltridecyl decanoate] | 90.75 | 94.24 | – | 80.0
